Structures are written as SMILES.

In data set [1] the test system is domestic shorthair (DSH) breed cats. The data set is described as follows: clean tooth model, 28-day feeding study in cats: gingivitis, plaque and calculus indices. Type of data set: in vivo. The note with it: treatment diet 2.3 g STAY-C 50/kg cat food, 28 days. How it is done: (§1) 18 domestic shorthair (DSH) breed cats (mean age 3.83±1.85 years, mean body weight 4.2+1.1 kg) were divided by age and gender into two equal groups (n=9) to be fed for 28 days with a • control diet or • treatment diet (2.3 g STAY-C® 50/kg cat food) As the “clean tooth” model was used, all cats received a dental cleaning consisting of ultrasonic scaling and, where necessary, using an abrasor after […], before the beginning of the study. The animals were then treated with the diets for 28 days. The analysis of the different indices were carried out according known methods.

Data set [2] shares this test system. Description: 28-day feeding study in cats: systemic health, body weight, blood counts, serum biochemistry. The settings on record: treatment diet 2.3 g STAY-C 50/kg cat food, 28 days. Type of data set: in vivo. How it is done: as §1

As to `O=C1O[C@H]([C@@H](O)CO)C(O)=C1OP(=O)(O)O.[Na+].[Na+].[Na+]` [STAY-C®50, trisodium L-ascorbic acid-2-monophosphate], in data set [1], the “Calculus indices, reduction compared to control group” value was “about 14%” and the Plaque indices entry was “reduced significantly”. Besides, the Gingivitis indices result in data set [1] (control group 28% increase) is recorded as “not increased”. Besides, the “changes in systemic health, body weight, blood counts or serum biochemistry” value in data set [2] was “No changes”.

(Values after patent US20130230470A1, “PET FOOD COMPOSITION” (DSM IP ASSETS B.V., priority 2003, published 2013).)
